Measured values published in patent US11053204B2, “Pyrimidinyloxy benzene derivatives as herbicides” (FMC Corporation, priority 2015, dated 2021).

How the values were obtained:
Experiment in all cases: Test C postemergence, plant response rating
Type in all cases: in vivo
kochia (Kochia scoparia) = conditions: for Plant response rating, Kochia: scale 0 to 100; for Kochia plant response rating: scale 0 to 100 (0 no effect, 100 complete control)
Method in brief: (§1)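 Greenhouse plants rated visually against untreated controls 13–15 d after treatment, scale 0 = no effect to 100 = complete control. Postemergence sprays went onto potted plants 2–18 cm tall (1–4 leaves); preemergence sprays onto soil freshly sown in loam–sand or silt loam, chemicals formulated in non-phytotoxic solvent with surfactant.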

[1] = tested on: chickweed (common chickweed, Stellaria media); conditions: for Plant response rating, Chickweed: scale 0 to 100; for Chickweed plant response rating: scale 0 to 100 (0 no effect, 100 complete control)
Method in brief: as §1

[2] = tested on: oat, wild (wild oat Avena fatua); conditions: for Plant response rating, Oat, Wild: scale 0 to 100; for Oat, Wild plant response rating: scale 0 to 100 (0 no effect, 100 complete control)
Method in brief: as §1

[3] = tested on: galium (catchweed bedstraw, Galium aparine); conditions: for Plant response rating, Galium: scale 0 to 100; for Galium plant response rating: scale 0 to 100 (0 no effect, 100 complete control)
Method in brief: as §1

[4] = tested on: ragweed (common ragweed, Ambrosia elatior); conditions: for Plant response rating, Ragweed: scale 0 to 100; for Ragweed plant response rating: scale 0 to 100 (0 no effect, 100 complete control)
Method in brief: as §1

[5] = tested on: waterhemp (common waterhemp, Amaranthus rudis); conditions: for Plant response rating, Waterhemp: scale 0 to 100; for Waterhemp plant response rating: scale 0 to 100 (0 no effect, 100 complete control)
Method in brief: as §1

[6] = tested on: nutsedge, yellow (yellow nutsedge, Cyperus esculentus); conditions: for Plant response rating, Nutsedge, Yellow: scale 0 to 100; for Nutsedge, Yellow plant response rating: scale 0 to 100 (0 no effect, 100 complete control)
Method in brief: as §1

[7] = tested on: velvetleaf (Abutilon theophrasti); conditions: for Plant response rating, Velvetleaf: scale 0 to 100; for Velvetleaf plant response rating: scale 0 to 100 (0 no effect, 100 complete control)
Method in brief: as §1

[8] = tested on: oilseed rape (Brassica napus); conditions: for Plant response rating, Oilseed Rape: scale 0 to 100; for Oilseed Rape plant response rating: scale 0 to 100 (0 no effect, 100 complete control)
Method in brief: as §1

[9] = tested on: blackgrass (Alopecurus myosuroides); conditions: for Plant response rating, Blackgrass: scale 0 to 100; for Blackgrass plant response rating: scale 0 to 100 (0 no effect, 100 complete control)
Method in brief: as §1

[10] = tested on: foxtail, giant (giant foxtail, Setaria faberii); conditions: for Plant response rating, Foxtail, Giant: scale 0 to 100; for Foxtail, Giant plant response rating: scale 0 to 100 (0 no effect, 100 complete control)
Method in brief: as §1

[11] = tested on: morningglory (Ipomoea coccinea); conditions: for Plant response rating, Morningglory: scale 0 to 100; for Morningglory plant response rating: scale 0 to 100 (0 no effect, 100 complete control)
Method in brief: as §1

[12] = tested on: lambsquarters (Chenopodium album); conditions: for Plant response rating, Lambsquarters: scale 0 to 100; for Lambsquarters plant response rating: scale 0 to 100 (0 no effect, 100 complete control)
Method in brief: as §1

[13] = tested on: wheat (winter wheat, Triticum aestivum); conditions: for Plant response rating, Wheat: scale 0 to 100; for Wheat plant response rating: scale 0 to 100 (0 no effect, 100 complete control)
Method in brief: as §1

corn (Zea mays) = conditions: for Plant response rating, Corn: scale 0 to 100; for Corn plant response rating: scale 0 to 100 (0 no effect, 100 complete control)
Method in brief: as §1

soybean (Glycine max) = conditions: for Plant response rating, Soybean: scale 0 to 100; for Soybean plant response rating: scale 0 to 100 (0 no effect, 100 complete control)
Method in brief: as §1

N#CCCOC(=O)c1c(Br)cccc1Oc1ncc(Cl)cn1 [Compound 7]
Plant response rating, Kochia (kochia (Kochia scoparia); 16 g ai/ha): 0
Plant response rating, Kochia (kochia (Kochia scoparia); 31 g ai/ha): 30
Kochia plant response rating (kochia (Kochia scoparia); 62 g ai/ha): 25
Kochia plant response rating (kochia (Kochia scoparia); 125 g ai/ha): 20
Plant response rating, Chickweed ([1]; 16 g ai/ha): 5
Plant response rating, Chickweed ([1]; 31 g ai/ha): 5
Chickweed plant response rating ([1]; 62 g ai/ha): 30
Chickweed plant response rating ([1]; 125 g ai/ha): 50
Plant response rating, Oat, Wild ([2]; 16 g ai/ha): 0
Plant response rating, Oat, Wild ([2]; 31 g ai/ha): 0
Oat, Wild plant response rating ([2]; 62 g ai/ha): 5
Oat, Wild plant response rating ([2]; 125 g ai/ha): 5
Plant response rating, Galium ([3]; 16 g ai/ha): 0
Plant response rating, Galium ([3]; 31 g ai/ha): 0
Galium plant response rating ([3]; 62 g ai/ha): 10
Galium plant response rating ([3]; 125 g ai/ha): 40
Plant response rating, Ragweed ([4]; 16 g ai/ha): 10
Plant response rating, Ragweed ([4]; 31 g ai/ha): 20
Ragweed plant response rating ([4]; 62 g ai/ha): 20
Ragweed plant response rating ([4]; 125 g ai/ha): 25
Plant response rating, Waterhemp ([5]; 16 g ai/ha): 35
Plant response rating, Waterhemp ([5]; 31 g ai/ha): 70
Waterhemp plant response rating ([5]; 62 g ai/ha): 60
Waterhemp plant response rating ([5]; 125 g ai/ha): 65
Plant response rating, Nutsedge, Yellow ([6]; 16 g ai/ha): 0
Plant response rating, Nutsedge, Yellow ([6]; 31 g ai/ha): 0
Nutsedge, Yellow plant response rating ([6]; 62 g ai/ha): 5
Nutsedge, Yellow plant response rating ([6]; 125 g ai/ha): 5
Plant response rating, Velvetleaf ([7]; 16 g ai/ha): 5
Plant response rating, Velvetleaf ([7]; 31 g ai/ha): 20
Velvetleaf plant response rating ([7]; 62 g ai/ha): 35
Velvetleaf plant response rating ([7]; 125 g ai/ha): 40
Plant response rating, Oilseed Rape ([8]; 16 g ai/ha): 0
Plant response rating, Oilseed Rape ([8]; 31 g ai/ha): 0
Oilseed Rape plant response rating ([8]; 62 g ai/ha): 0
Oilseed Rape plant response rating ([8]; 125 g ai/ha): 5
Plant response rating, Blackgrass ([9]; 16 g ai/ha): 0
Plant response rating, Blackgrass ([9]; 31 g ai/ha): 0
Blackgrass plant response rating ([9]; 62 g ai/ha): 0
Blackgrass plant response rating ([9]; 125 g ai/ha): 5
Plant response rating, Foxtail, Giant ([10]; 16 g ai/ha): 5
Plant response rating, Foxtail, Giant ([10]; 31 g ai/ha): 5
Foxtail, Giant plant response rating ([10]; 62 g ai/ha): 10
Foxtail, Giant plant response rating ([10]; 125 g ai/ha): 15
Plant response rating, Morningglory ([11]; 16 g ai/ha): 5
Plant response rating, Morningglory ([11]; 31 g ai/ha): 25
Morningglory plant response rating ([11]; 62 g ai/ha): 40
Morningglory plant response rating ([11]; 125 g ai/ha): 55
Plant response rating, Lambsquarters ([12]; 16 g ai/ha): 5
Plant response rating, Lambsquarters ([12]; 31 g ai/ha): 25
Lambsquarters plant response rating ([12]; 62 g ai/ha): 30
Lambsquarters plant response rating ([12]; 125 g ai/ha): 55
Plant response rating, Wheat ([13]; 16 g ai/ha): 0
Plant response rating, Wheat ([13]; 31 g ai/ha): 0
Wheat plant response rating ([13]; 62 g ai/ha): 5
Wheat plant response rating ([13]; 125 g ai/ha): 5
Plant response rating, Corn (corn (Zea mays); 16 g ai/ha): 5
Plant response rating, Corn (corn (Zea mays); 31 g ai/ha): 10
Corn plant response rating (corn (Zea mays); 62 g ai/ha): 10
Corn plant response rating (corn (Zea mays); 125 g ai/ha): 15
Plant response rating, Soybean (soybean (Glycine max); 16 g ai/ha): 25
Plant response rating, Soybean (soybean (Glycine max); 31 g ai/ha): 25
Soybean plant response rating (soybean (Glycine max); 62 g ai/ha): 40
Soybean plant response rating (soybean (Glycine max); 125 g ai/ha): 70
